Results reported in patent publication EP0647627A1, “1,2-Dihydro-2-oxo-3-methylsulfonylaminomethyl-pyridines as angiotensin II antagonists” (MERCK PATENT GmbH, priority 1993, dated 1995).

Experiment: Angiotensin II antagonism at the rat adrenal gland, IC50 (method of A.T. Chiu et al., J. Pharmacol. Exp. Therap. 250, 867-874 (1989))
Format: binding, Ratten
Conditions: an der Rattennebenniere; Iy and Iz tested as K-Salze; read-out: IC 50-Werte
From the text: Diese Wirkungen können nach üblichen in vitro- oder in vivo-Methoden ermittelt werden, wie sie z.B. in der US-PS 4 880 804, der US-PS 5 036 048 und der WO 91/14367 beschrieben sind, ferner von A.T. Chiu et al., J. Pharmacol. Exp. Therap. 250, 867-874 (1989), und von P.C. Wong et al., ibid. 252, 719-725 (1990; in vivo, an Ratten).
So zeigten die K-Salze von 1,2-Dihydro-1-(2'-(1H-5-tetrazolyl)-biphenylyl-4-methyl)-2-oxo-3-N-methyl- bzw. -3-N-isopropyl-N-methylsulfonylaminomethyl-6-butyl-pyridin ("Iy" bzw. "Iz") an der Rattennebenniere (Versuchsmethodik vgl. A.T.Chiu et al., l.c.) IC 50-Werte von 1,15 bzw. 1,9 nM.l-¹, wahrend das bekannte 1,2-Dihydro-1-(2'-(1H-5-tetrazolyl)biphenylyl-4-methyl)-2-oxo-3-methylsulfonylaminomethyl-6-butyl-pyridin (vgl. EP 0 530 702 A1, Beispiel 22) im gleichen Test einen IC 50-Wert von 4,0 nM · l⁻¹ aufwies.

Row | SMILES | IC50
1 | CCCCc1ccc(CNS(C)(=O)=O)c(=O)n1Cc1ccc(-c2ccccc2-c2nn[nH]n2)cc1 [EP 0 530 702 A1, Beispiel 22, 1,2-Dihydro-1-(2'-(1H-5-tetrazolyl)biphenylyl-4-methyl)-2-oxo-3-methylsulfonylaminomethyl-6-butyl-pyridin, reference compound] | 4 nM
2 | CCCCc1ccc(CN(C)S(C)(=O)=O)c(=O)n1Cc1ccc(-c2ccccc2-c2nn[nH]n2)cc1 [Iy, 1,2-Dihydro-1-(2'-(1H-5-tetrazolyl)-biphenylyl-4-methyl)-2-oxo-3-N-methyl-N-methylsulfonyl-aminomethyl-6-butyl-pyridin] | 1.15 nM
3 | CCCCc1ccc(CN(C(C)C)S(C)(=O)=O)c(=O)n1Cc1ccc(-c2ccccc2-c2nn[nH]n2)cc1 [Iz, 1,2-Dihydro-1-(2'-(1H-5-tetrazolyl)-biphenylyl-4-methyl)-2-oxo-3-N-isopropyl-N-methylsulfonyl-aminomethyl-6-butyl-pyridin] | 1.9 nM
